Here are results for 20 molecules from patent publication EP0779296A2, “D-alpha-aminoalkanoyl-(S)-N-alpha-alkylbenzyl amides useful as intermediates for artificial sweeteners” (THE COCA-COLA COMPANY, priority 1992, dated 1994).

Where a SMILES comes first, the peptide text is derived from it.

Assay in one assay: not given
Conditions: disclosed by Zeng et al.; cited from earlier work.
Consider `Cc1cccc(C)c1NC(=O)[C@@H](C)NC(=O)[C@@H](N)CC(=O)O` [2,6-dimethyl-aniline amide], for which the sweetness potency was 500 times the sweetness of sucrose.

Assay in the next assay: not given
The settings on record: reported in U.S. Patent No. 4,411,925; cited from earlier work.
On to `C[C@@H](NC(=O)[C@@H](N)CC(=O)O)C(=O)NC(C1CC1)C1CC1` [R = methyl], for which the “sweetness potency (SP)” value is on record as 1200 times sucrose.

Regarding `CC(C)[C@@H](NC(=O)[C@@H](N)CC(=O)O)C(=O)NC(C1CC1)C1CC1` [R = isopropyl], the “sweetness potency (SP)” value is given as 110 times sucrose.

For the molecule `CC[C@@H](NC(=O)[C@@H](N)CC(=O)O)C(=O)NC(C1CC1)C1CC1` [R = ethyl], the “sweetness potency (SP)” value is listed as 500 times sucrose.

With `C[C@@H](NC(=O)[C@@H](N)CC(=O)O)C(=O)NC(C1CC1)C(C)(C)C` (mixture of isomers) [L-aspartyl-D-alanine amide of (+/-) t-butyl-cyclopropyl methylamine], the “sweetness potency (SP)” value is reported as 1200 times sucrose.

Assay in the next assay: not given
Conditions: value adopted for the reference solution; cited from earlier work.
As to `COC(=O)[C@H](Cc1ccccc1)NC(=O)[C@@H](N)CC(=O)O` [aspartame] (H-Asp-Phe-OMe), the “sweetness of aspartame (adopted reference value)” value is given as 180 times sucrose.

The nature of the next assay: Sweetness potency: four tasters compare dilutions of the test compound with a 200 ppm aspartame solution. In kind it is in vivo. Conditions: against 200 ppm aspartame solution; aspartame taken as 180 times sucrose. As for the experimental part:
The sweetness potency was determined by having four tasters compare the sweetness of various dilutions of the test compound with a 200 ppm equivalent solution of aspartame, wherein the sweetness of aspartame was taken to be 180 times sucrose. […]
The molecule `CC(C)[C@@H](NC(=O)[C@@H](N)CC(=O)O)C(=O)N[C@@H](C)c1ccccc1` [Example 5, L-aspartyl-D-valine-N-(S)-α-methylbenzyl amide] showed a Sweetness of 540 times sucrose.

For the molecule `C[C@@H](NC(=O)[C@@H](N)CC(=O)O)C(=O)NC(c1ccccc1)c1ccccc1` [Example 12, L-aspartyl-D-alanine-N-α-phenyl benzyl amide], the Sweetness stood at 180 times sucrose.

In turn, `C[C@@H](NC(=O)[C@@H](N)CC(=O)O)C(=O)NC(c1ccccc1)C(C)(C)C` (stereo partly drawn) [Example 10, L-aspartyl-D-alanine-N-(R,S)-α-t-butylbenzyl amide] showed a Sweetness of 150 times sucrose.

On to `CC(C)C(NC(=O)[C@@H](C)NC(=O)[C@@H](N)CC(=O)O)c1ccccc1` (stereo partly drawn) [Example 9, L-aspartyl-D-alanine-N-(R,S)-α-isopropylbenzyl amide], for which the Sweetness is reported as 180 times sucrose.

In the case of `CCCC(NC(=O)[C@@H](C)NC(=O)[C@@H](N)CC(=O)O)c1ccccc1` (stereo partly drawn) [Example 11, L-aspartyl-D-alanine-N-(R,S)-α-n-propylbenzyl amide], the Sweetness is on record as 90 times sucrose.

`CCC[C@@H](NC(=O)[C@@H](N)CC(=O)O)C(=O)N[C@@H](C)c1ccccc1` [Example 4, L-aspartyl-D-α-aminopentanoic-acid-N-(S)-α-methylbenzyl amide] yielded a Sweetness of 90 times sucrose.

The molecule `CC[C@@H](NC(=O)[C@@H](N)CC(=O)O)C(=O)N[C@@H](C)c1ccccc1` [Example 3, L-aspartyl-D-α-aminobutyric-acid N-(S)-α-methylbenzyl amide] came in with a Sweetness of 360 times sucrose.

For the molecule `C[C@@H](NC(=O)[C@@H](N)CC(=O)O)C(=O)NC(c1ccccc1)C1CC1` (stereo partly drawn) [Example 13, L-aspartyl-D-alanine-N-α-cyclopropyl benzyl amide], the Sweetness is given as 1,080 times sucrose.

Take `CC[C@H](NC(=O)[C@H](NC(=O)[C@@H](N)CC(=O)O)C(C)C)c1ccccc1` [Example 15, L-aspartyl-D-valine-N-(S)-α-ethylbenzyl amide]: the Sweetness turned out to be 1500 times sucrose.

For the molecule `CCC(NC(=O)[C@@H](C)NC(=O)[C@@H](N)CC(=O)O)c1ccccc1` (stereo partly drawn) [Example 8, L-aspartyl-D-alanine-N-(R,S)-α-ethylbenzyl amide], the Sweetness came to 270 times sucrose.

`CC[C@H](NC(=O)[C@@H](CC)NC(=O)[C@@H](N)CC(=O)O)c1ccccc1` [Example 14, L-aspartyl-D-α-aminobutyric acid-N-(S)-α-ethylbenzyl amide] gave a Sweetness of 2500 x Sucrose.

On to `C[C@H](NC(=O)[C@@H](C)NC(=O)[C@@H](N)CC(=O)O)c1ccccc1` [Example 2, L-aspartyl-D-alanine-N-(S)-α-methyl-benzylamide], for which the Sweetness stood at 180 times sucrose.

With `C[C@H](NC(=O)[C@H](NC(=O)[C@@H](N)CC(=O)O)c1ccccc1)c1ccccc1` [Example 6, L-aspartyl-D-phenylglycine-N-(S)-α-methylbenzyl amide], the Sweetness is reported as 270 times sucrose.

Turning to `C[C@@H](NC(=O)[C@@H](N)CC(=O)O)C(=O)N[C@H](C)c1ccccc1` [Example 7, L-aspartyl-D-alanine-N-(R)-α-methylbenzyl amide], the Sweetness entry is recorded as “less than 10 times sucrose”.

The assay is the same for the next values; noted with them: against 200 ppm aspartame solution; aspartame taken as 180 times sucrose; listed as L-aspartyl-D-α-aminobutyric-acid-(S)-N-α-alkylbenzyl amide.
Regarding `CC[C@H](NC(=O)[C@@H](CC)NC(=O)[C@@H](N)CC(=O)O)c1ccccc1` [Example 14, L-aspartyl-D-α-aminobutyric acid-N-(S)-α-ethylbenzyl amide], the Sweetness came to 2500 times sucrose.
